In patent US9303042B2, “Triazolothienopyrimidine compound inhibitors of urea transporters and methods of using inhibitors” (The Regents of the University of California, priority 2012, dated 2016):
pIC50: −log10 of the molar value. Like-named read-outs stand apart in the source and are kept apart here.

How the values were obtained:
[1] = target: T1, AQP1 (Mus musculus, UniProt Q02013); test: Erythrocyte osmotic water permeability by stopped-flow light scattering, wild type erythrocytes; assay type: cell-based; conditions: 100 mM sucrose gradient, 10 °C
T1 construct: endogenous in cells; host or cells: erythrocytes of wild-type CD1 mice
T1 sequence (Q02013 1-269): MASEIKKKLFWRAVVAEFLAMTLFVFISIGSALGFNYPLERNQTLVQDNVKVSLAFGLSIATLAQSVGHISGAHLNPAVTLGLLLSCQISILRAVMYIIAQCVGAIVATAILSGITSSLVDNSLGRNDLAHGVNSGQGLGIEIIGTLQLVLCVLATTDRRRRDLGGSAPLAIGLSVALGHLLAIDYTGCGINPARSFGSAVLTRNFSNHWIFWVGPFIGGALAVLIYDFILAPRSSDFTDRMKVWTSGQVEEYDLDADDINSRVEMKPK
Description: Erythrocyte urea and water permeabilities were measured by stopped-flow light scattering using a Hi-Tech Sf-51 instrument (Wiltshire, UK). […] Urea permeability and percentage inhibition were computed as described (see, e.g., Levin et al., FASEB J. supra, 2007)). In some experiments, different urea gradients (25-200 mM) were used, or inhibitor was added only to the erythrocyte-containing or urea-containing solutions. In some experiments an outwardly directed urea gradient was used in which erythrocytes were incubated for 30 min with PBS containing specified urea and mixed in the stopped-flow apparatus with PBS. In reversibility experiments, erythrocytes were incubated for 30 min with inhibitor, washed three times to remove inhibitor, and urea transport assayed. Osmotic water permeability was measured using a 100 mM gradient of sucrose.
Erythrocyte osmotic water permeability was measured by stopped-flow light scattering. […] Life Sci. 52:474-78 (2009)).

[2] = target: T2, mouse UT-B (Mus musculus, UniProt Q8VHL0); test: Stopped-flow light scattering assay of erythrocyte urea transport, mouse erythrocytes; assay type: cell-based
T2 construct: Screening was performed using mouse erythrocytes, which strongly express UT-B; endogenous in cells; host or cells: erythrocytes in whole blood of wild-type CD1 mice
T2 sequence (Q8VHL0 1-384): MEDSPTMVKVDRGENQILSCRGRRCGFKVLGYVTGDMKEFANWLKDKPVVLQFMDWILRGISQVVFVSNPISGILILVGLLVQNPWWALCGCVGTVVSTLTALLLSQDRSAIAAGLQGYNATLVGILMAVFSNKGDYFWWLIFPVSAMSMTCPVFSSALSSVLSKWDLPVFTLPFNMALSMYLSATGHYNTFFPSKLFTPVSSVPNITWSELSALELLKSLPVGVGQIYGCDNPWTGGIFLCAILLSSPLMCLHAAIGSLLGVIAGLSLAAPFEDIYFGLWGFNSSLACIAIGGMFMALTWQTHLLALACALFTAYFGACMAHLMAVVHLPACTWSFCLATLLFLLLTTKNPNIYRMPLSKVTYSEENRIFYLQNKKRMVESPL
Description: Erythrocyte urea and water permeabilities were measured by stopped-flow light scattering using a Hi-Tech Sf-51 instrument (Wiltshire, UK). For measurement of urea permeability, dilutions of whole blood (mouse or human) in PBS (hematocrit ˜0.5%) were incubated with test compounds for 5 min and then subjected to a 100-mM inwardly directed urea gradient. After an initial osmotic shrinking phase, the kinetics of increasing cell volume caused by urea influx was measured as the time-course of 90° scattered light intensity at 530 nm, with increasing cell volume producing reduced scattered light intensity. Urea permeability and percentage inhibition were computed as described (see, e.g., Levin et al., FASEB J. supra, 2007)). In some experiments, different urea gradients (25-200 mM) were used, or inhibitor was added only to the erythrocyte-containing or urea-containing solutions. In some experiments an outwardly directed urea gradient was used in which erythrocytes were incubated for 30 min with PBS containing specified urea and mixed in the stopped-flow apparatus with PBS. In reversibility experiments, erythrocytes were incubated for 30 min with inhibitor, washed three times to remove inhibitor, and urea transport assayed. Osmotic water permeability was measured using a 100 mM gradient of sucrose.
UT-B inhibition potency was assayed quantitatively by stopped-flow light scattering from the kinetics of urea influx in response to an inwardly directed urea gradient (see Materials and Methods above). Rapid mixing of an erythrocyte suspension with an equal volume of a hyperosmolar, urea-containing solution to give a 100 mM inwardly directly urea gradient produced rapid cell shrinking due to osmotic water efflux, followed by cell swelling as a consequence of urea (and water) influx.
Measurements were done using a Hi-Tech Sf-51 instrument (Wiltshire, UK). Whole blood (mouse or human) was diluted in PBS (hematocrit approximately 0.5%), incubated with inhibitor for 5 min and then subjected to a 100-mM inwardly directed urea gradient. The kinetics of increasing cell volume caused by urea influx was measured as the time-course of 90° scattered light intensity at 530 nm. Urea permeability and percentage inhibition were computed as described (see, e.g., Levin et al., supra 2007).

[3] = target: T3, CFTR (Homo sapiens, UniProt P13569); test: CFTR chloride conductance by short-circuit current; assay type: cell-based; conditions: 10 μM, forskolin-activated
T3 construct: expressed in transfected cells
T3 sequence (P13569 whole entry): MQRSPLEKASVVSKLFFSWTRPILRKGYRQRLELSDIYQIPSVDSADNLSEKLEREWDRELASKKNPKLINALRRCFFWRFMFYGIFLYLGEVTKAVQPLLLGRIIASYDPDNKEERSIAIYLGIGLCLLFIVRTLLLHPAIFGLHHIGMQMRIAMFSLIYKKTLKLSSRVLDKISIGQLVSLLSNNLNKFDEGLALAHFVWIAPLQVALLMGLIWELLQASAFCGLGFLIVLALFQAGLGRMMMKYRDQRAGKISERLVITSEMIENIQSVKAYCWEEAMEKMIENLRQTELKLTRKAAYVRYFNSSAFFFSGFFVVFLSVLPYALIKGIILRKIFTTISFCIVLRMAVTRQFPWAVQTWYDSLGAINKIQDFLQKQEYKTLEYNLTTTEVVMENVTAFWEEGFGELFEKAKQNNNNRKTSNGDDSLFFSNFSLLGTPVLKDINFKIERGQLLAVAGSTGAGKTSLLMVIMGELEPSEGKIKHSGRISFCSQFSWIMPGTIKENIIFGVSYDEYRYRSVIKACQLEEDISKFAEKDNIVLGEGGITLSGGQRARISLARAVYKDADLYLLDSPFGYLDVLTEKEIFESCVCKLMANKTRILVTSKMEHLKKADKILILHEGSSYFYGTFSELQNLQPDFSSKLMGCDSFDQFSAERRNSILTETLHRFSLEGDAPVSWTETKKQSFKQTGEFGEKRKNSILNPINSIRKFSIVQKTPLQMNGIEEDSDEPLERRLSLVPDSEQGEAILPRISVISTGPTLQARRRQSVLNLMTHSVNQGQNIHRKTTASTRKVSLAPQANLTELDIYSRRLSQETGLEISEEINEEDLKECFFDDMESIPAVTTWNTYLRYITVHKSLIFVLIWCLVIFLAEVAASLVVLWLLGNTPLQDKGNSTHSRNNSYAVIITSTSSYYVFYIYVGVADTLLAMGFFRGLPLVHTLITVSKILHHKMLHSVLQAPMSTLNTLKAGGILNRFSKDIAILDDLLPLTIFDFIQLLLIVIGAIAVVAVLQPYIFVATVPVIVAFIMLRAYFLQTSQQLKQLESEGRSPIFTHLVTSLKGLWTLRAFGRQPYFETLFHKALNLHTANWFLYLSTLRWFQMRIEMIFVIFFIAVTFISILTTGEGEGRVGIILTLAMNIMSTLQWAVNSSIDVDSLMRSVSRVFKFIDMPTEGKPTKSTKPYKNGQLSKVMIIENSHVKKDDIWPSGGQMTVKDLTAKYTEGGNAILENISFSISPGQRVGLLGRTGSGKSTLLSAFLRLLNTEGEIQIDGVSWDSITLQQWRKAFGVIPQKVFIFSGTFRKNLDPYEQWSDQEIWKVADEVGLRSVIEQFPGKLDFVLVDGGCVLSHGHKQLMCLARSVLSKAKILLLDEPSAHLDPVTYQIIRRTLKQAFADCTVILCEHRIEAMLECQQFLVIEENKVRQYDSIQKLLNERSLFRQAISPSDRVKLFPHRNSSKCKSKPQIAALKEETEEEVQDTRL

[4] = target: T4, UT-B (Mus musculus, UniProt Q8VHL0); test: Erythrocyte lysis assay of UT-B inhibition; assay type: cell-based; design: Screening was performed using mouse erythrocytes, which strongly express UT-B; endogenous in cells; host or cells: erythrocytes in whole blood of wild-type CD1 mice; conditions: read-out: IC50
T4 sequence (Q8VHL0 1-384): T2 sequence (Q8VHL0 1-384)
Outline: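 Mouse erythrocytes (expressing UT-B and AQP1) subjected to an outward acetamide gradient; UT-B inhibition blocks acetamide efflux, causing swelling and lysis. Lysis quantified by absorbance at 710 nm within 5 min of hypo-osmolar shock.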

[5] = In vitro metabolic stability in hepatic microsomes; assay type: in vitro ADME, rat
Description: Compounds, each at 5 μM, were incubated for specified times at 37° C. with rat liver microsomes (1 mg protein/ml; Sigma-Aldrich, St. Louis, Mo.) in potassium phosphate buffer (100 mM) containing 1 mM NADPH. The mixture was then chilled on ice, and 0.5 ml of ice-cold ethyl acetate was added.

## CCc1ccc(S(=O)(=O)c2nnn3c2nc(NCc2cccs2)c2sccc23)cc1 [UTBinh-14, [3-(4-Ethyl-benzenesulfonyl)-thieno[2,3-e][1,2,3]triazolo[1,5-a]pyrimidin-5-yl]-thiophen-2-ylmethylamine]
[1]
  inhibition of water transport in erythrocytes from wild type mice: no significant inhibition
[2]; 0 and 50 nM, urea gradient varied
  mechanism of UT-B inhibition vs urea: competitive
[2]; 100 nM, mouse erythrocytes
  reduction of urea transport: approximately 75%
[2]; 100 nM, washout
  reversibility of UT-B inhibition: reversible
[2]; 1 μM
  inhibition at 1 µM: ~100%
[2]; erythrocytes from UT-B knockout mice
  urea transport in UT-B null erythrocytes: did not inhibit
[2]; erythrocytes pre-loaded with 100 mM urea, mixed with urea-free PBS, read-out: IC50 urea efflux
  pIC50: 7.57
[2]; urea influx, 100 mM inwardly directed urea gradient, read-out: IC50 for mouse UT-B
  pIC50: 7.60
[3]
  inhibition of CFTR chloride conductance: no significant inhibition
[4]; Table 2, synthesized inhibitors, red blood cell lysis assay (n = 3), single-site saturation model
  pIC50: 7.96
[4]; erythrocyte lysis assay
  pIC50: 7.66
[5]; hepatic microsomes, NADPH
  t1/2 for disappearance in hepatic microsomes: approximately 2.8 min
[5]; parent molecule after 30 min incubation with rat liver microsomes
  % Remaining: <5%
